Laboratory results published in US8440424B2, “Identification of antibiotic resistance using labelled antibiotics” (miacom Diagnostics GmbH, priority 2008, dated 2013).
Where two headings read alike, the source gives them in different places.

Experiments:
[1] = system: High level Aminoglycoside Resistance in Enterococci (HLAR); test: Binding of fluorescent labelled antibiotic, resistant vs non-resistant form: HLAR; conditions: reduction in Streptomycin binding; HLAR Enterococci relative to non-resistant form; fluorescent label
Procedure: (§1) An in-situ hybridisation protocol may be applied as laid down in patent application EP 06 021 267.7, which is incorporated herein by reference. The incubation with a labelled antibiotic may be performed at temperatures below the Tm of the hybridised probe. In a preferred embodiment the temperature is between about 25 and about 65° C., in a more preferred embodiment the temperature is between about 35° C. and about 59° C. In an even more preferred embodiment, the temperature is at about 52° C. The incubation time is preferably between about 1 and about 30 minutes. In a more preferred embodiment the incubation is made for about 15 minutes. After the incubation the slide may be submerged in 50% ethanol followed by a bath in pure ethanol. Both steps may be run for between about 1 and about 10 minutes. The preferred length of incubation is between about 2 and about 6 minutes. It is more preferred to incubate about 4 minutes. […]
(§2) An antibiotic resistance, such as a resistance against penicillin, may be detected in a protocol comprising the steps:
(§3) Table 4 indicates the alteration of the amount of detectable labelled antibiotics in clinically relevant micro-organisms in its resistant form relative to its non-resistant form. The amount is expressed in % change of fluorescence (decrease and increase, respectively) of an antibiotic which carries a fluorescent label.

23S rRNA = conditions: cited from earlier work
[2] = system: Vancomycin intermediary SA (VISA); test: Binding of fluorescent labelled antibiotic, resistant vs non-resistant form: VISA; parameters: species or system Staphylococcus aureus; conditions: increased binding of Vancomycin; VISA relative to non-resistant form; fluorescent label
Procedure: as §1, §2, §3

[3] = system: Vancomycin resistant Enterococci (VRE); test: Binding of fluorescent labelled antibiotic, resistant vs non-resistant form: VRE; conditions: reduction of vancomycin binding; VRE relative to non-resistant form; fluorescent label
Procedure: as §1, §2, §3

[4] = system: Vancomycin resistant Enterococci (VRE); conditions: stated as resistance mechanism; cited from earlier work
[5] = system: Vancomycin resistant Staph (VRS); test: Binding of fluorescent labelled antibiotic, resistant vs non-resistant form: VRS; parameters: species or system Staphylococci (CNS); conditions: increased binding of Vancomycin; VRS relative to non-resistant form; fluorescent label
Excerpt: (§4) Another preferred application is the detection of the binding of Vancomycin to surface proteins of Staphylococcus aureus which are anchored to the cell wall peptidoglycan. Vancomycin resistant Staphylococci bind the antibiotic to such an extent that it renders Vancomycin ineffective. Labelled Vancomycin therefore will preferably bind to resistant organisms.
(§5) An in-situ hybridisation protocol may be applied as laid down in patent application EP 06 021 267.7, which is incorporated herein by reference. The incubation with a labelled antibiotic may be performed at temperatures below the Tm of the hybridised probe. In a preferred embodiment the temperature is between about 25 and about 65° C., in a more preferred embodiment the temperature is between about 35° C. and about 59° C. In an even more preferred embodiment, the temperature is at about 52° C. The incubation time is preferably between about 1 and about 30 minutes. […]
as §2, §3

[6] = system: Vancomycin resistant SA (VRSA); test: Binding of fluorescent labelled antibiotic, resistant vs non-resistant form: VRSA; parameters: species or system Staphylococcus aureus; conditions: binding of labelled Vancomycin relative to non-resistant form
Excerpt: as §4, §5, §2, §3

[7] = system: Extended Spectrum β-Lactamase (ESBL) Pseudomonas spp.; test: Binding of fluorescent labelled clavulanic acid: ESBL Pseudomonas spp.; conditions: increase, ESBL Pseudomonas spp. relative to non-resistant form
Procedure: as §1, §2, §3

[8] = system: Extended Spectrum β-Lactamase (ESBL) BCC; test: Binding of fluorescent labelled clavulanic acid: ESBL BCC; conditions: increase, ESBL BCC relative to non-resistant form
Procedure: as §1, §2, §3

[9] = system: Extended Spectrum β-Lactamase (ESBL) Stenotrophomonas maltophilia; test: Binding of fluorescent labelled clavulanic acid: ESBL Stenotrophomonas maltophilia; conditions: increase, ESBL Stenotrophomonas maltophilia relative to non-resistant form
Procedure: as §1, §2, §3

[10] = system: Extended Spectrum β-Lactamase (ESBL) Enterobacteriaceae; test: Binding of fluorescent labelled clavulanic acid: ESBL Enterobacteriaceae; conditions: increase, ESBL Enterobacteriaceae relative to non-resistant form
Procedure: as §1, §2, §3

[11] = system: Extended Spectrum β-Lactamase (ESBL) Acinetobacter; test: Binding of fluorescent labelled clavulanic acid: ESBL Acinetobacter; conditions: increase, ESBL Acinetobacter relative to non-resistant form
Procedure: as §1, §2, §3

[12] = system: Community acquired MRSA (CA-MRSA); assay type: binding, Staphylococcus aureus
Procedure: The incubation with a labelled antibiotic may be performed at temperatures below the Tm of the hybridised probe. In a preferred embodiment the temperature is between about 25 and about 65° C., in a more preferred embodiment the temperature is between about 35° C. and about 59° C. In an even more preferred embodiment, the temperature is at about 52° C. The incubation time is preferably between about 1 and about 30 minutes. In a more preferred embodiment the incubation is made for about 15 minutes. After the incubation the slide may be submerged in 50% ethanol followed by a bath in pure ethanol. Both steps may be run for between about 1 and about 10 minutes. The preferred length of incubation is between about 2 and about 6 minutes. It is more preferred to incubate about 4 minutes. The slides may then be air-dried (e.g. on a hot plate) and the cells may be embedded in a balanced salt mounting medium.

[13] = system: Methicillin Resistant Staphylococcus aureus (MRSA); test: Binding of fluorescent labelled antibiotic, resistant vs non-resistant form: MRSA; conditions: reduction of Penicillin binding; MRSA relative to non-resistant form; antibiotic carries a fluorescent label
Procedure: as §1, §2, §3

[14] = system: Border.line oxacillin resistant SA (BORSA); test: Binding of fluorescent labelled antibiotic, resistant vs non-resistant form: BORSA; parameters: species or system Staphylococcus aureus; conditions: reduction of penicillin binding; BORSA relative to non-resistant form; fluorescent label
Procedure: as §1, §2, §3

[15] = system: Oxacillin resistant SA (ORSA); test: Binding of fluorescent labelled antibiotic, resistant vs non-resistant form: ORSA; parameters: species or system Staphylococcus aureus; conditions: reduction of penicillin binding; ORSA relative to non-resistant form; fluorescent label
Procedure: as §1, §2, §3

For `[H]/N=C(/N)N[C@H]1[C@H](O)[C@@H](O)[C@H](O[C@@H]2O[C@@H](C)[C@](O)(C=O)[C@H]2O[C@@H]2O[C@@H](CO)[C@H](O)[C@@H](O)[C@@H]2NC)[C@@H](N/C(N)=N\[H])[C@@H]1O` [Streptomycin, reference compound], the “% Change in Fluorescenc” value [1] is given as over 80% and the Phenotype (23S rRNA; 23S rRNA position 2661 "G to C", E. coli, when expressed with Smr, hyperaccurate S12 mutation) is given as “streptomycin dependent”.
In the case of `CN[C@H](CC(C)C)C(=O)N[C@H]1C(=O)N[C@@H](CC(N)=O)C(=O)N[C@H]2C(=O)N[C@H]3C(=O)N[C@H](C(=O)N[C@H](C(=O)O)c4cc(O)cc(O)c4-c4cc3ccc4O)[C@H](O)c3ccc(c(Cl)c3)Oc3cc2cc(c3O[C@@H]2O[C@H](CO)[C@@H](O)[C@H](O)[C@H]2O[C@H]2C[C@](C)(N)[C@H](O)[C@H](C)O2)Oc2ccc(cc2Cl)[C@H]1O` [Vancomycin], the “% Change in Fluorescenc” value [2] is given as 20-50%, the “% Change in Fluorescenc” value [3] is given as over 80% and the “Reduced affinity to Van” value [4] is given as “Reduced affinity to Van by 3 orders of magnitude”. For the same compound, the “% Change in Fluorescenc” value [5] was over 50% and the “Effect of resistance on fluorescence” value [6] was “Increased”.
With `O=C(O)[C@H]1/C(=C/CO)O[C@@H]2CC(=O)N21` [clavulanic acid] the “% Change in Fluorescenc” value [7] was over 80%, the “% Change in Fluorescenc” value [8] was over 80% and the “% Change in Fluorescenc” value [9] was over 80%. For the same compound, the “% Change in Fluorescenc” value [10] was over 80% and the “% Change in Fluorescenc” value [11] was over 80%.
For `C=C(NC(=O)C(=C)NC(=O)c1csc(C2=N[C@@H]3c4csc(n4)[C@H]4NC(=O)c5csc(n5)[C@H]([C@](C)(O)[C@@H](C)O)NC(=O)[C@H]5CSC(=N5)/C(=C/C)NC(=O)[C@H]([C@@H](C)O)NC(=O)c5csc(n5)[C@]3(CC2)NC(=O)[C@H](C)NC(=O)C(=C)NC(=O)[C@H](C)NC(=O)[C@H]([C@@H](C)CC)N[C@@H]2C=Cc3c([C@H](C)O)cc(nc3[C@H]2O)C(=O)O[C@@H]4C)n1)C(N)=O` [thiostrepton], the “Phenotype: binding in RNA fragments” value (23S rRNA; 23S rRNA position 1056 G to C, E. coli) is listed as “weakened in RNA”, the “Phenotype: drug binding affinity” value (23S rRNA; 23S rRNA position 1067 A to C, E. coli) is listed as “affinity is reduced similarly” and the “Phenotype: drug binding affinity” value (23S rRNA; 23S rRNA position 1067 A to G, E. coli) is listed as “affinity is reduced similarly”. The “Phenotype: drug binding affinity” value (23S rRNA; 23S rRNA position 1067 A to U, E. coli) was “affinity is reduced similarly” and the “Phenotype: thiostrepton resistance in poly (U) translation” value (23S rRNA; 23S rRNA position 1067 A to U, E. coli, mutant constituted 30% of the total 23S rRNA pool in the ribosomes) was “ribosomes; exhibited 30%”.
In the case of `COc1cc(Cc2cnc(N)nc2N)cc(OC)c1OC` [trimethoprim, Trimethoprim], the “Effect of resistance on fluorescence” value ([12]; CA-MRSA, binding capacity for the labelled antibiotic) is reported as “Maintaims binding”.
In the case of Penicillin, the “% Change in Fluorescenc” value ([12]; reduction of penicillin binding, CA-MRSA relative to non-resistant form, antibiotic carries a fluorescent label) is reported as “> to ≈80%”, the “% Change in Fluorescenc” value [13] is reported as “> to ≈80%” and the “% Change in Fluorescenc” value [14] is reported as “> to ≈80%”. The “% Change in Fluorescenc” value [15] was “> to ≈80%”.
In the case of spiramycin, the Phenotype (23S rRNA; 23S rRNA position 2611 "C to G", Chlamydomonas reinhardtii, Gauthier et al. 1988) is listed as “spiramycin resistance” and the Phenotype (23S rRNA; 23S rRNA position 2611 "C to G", Yeast mitochondria, Sor and Fukahara 1984) is listed as “spiramycin resistance”.
